# Laboratory results published in ChEMBL document CHEMBL5113392, “Novel hybrid pyrrolidinedione-thiazolidinones as potential anticancer agents: Synthesis and biological evaluation” (Eur J Med Chem, 2022).
# Calls of active or inactive are those of the source. The rule behind the calls is not given here.
# Key:
# [1] = test system: UO-31; assay: Anticancer activity against human UO-31 cells assessed as growth inhibition incubated for 48 hrs by SRB assay; type: functional
# [2] = test system: NCI-H322M; assay: Anticancer activity against human NCI-H322M cells assessed as growth inhibition incubated for 48 hrs by SRB assay; type: functional
# [3] = test system: ACHN; assay: Anticancer activity against human ACHN cells assessed as total growth inhibition incubated for 48 hrs by SRB assay; type: functional
# [4] = test system: SK-MEL-28; assay: Anticancer activity against human SK-MEL-28 cells assessed as lethality incubated for 48 hrs by SRB assay; type: functional; details: read-out: LC50 (the source's name)
# [5] = test system: NCI-H23; assay: Anticancer activity against human NCI-H23 cells assessed as lethality incubated for 48 hrs by SRB assay; type: functional; details: read-out: LC50 (the source's name)
# [6] = test system: NCI-H226; assay: Anticancer activity against human NCI-H226 cells assessed as total growth inhibition incubated for 48 hrs by SRB assay; type: functional
# [7] = test system: CAKI-1; assay: Anticancer activity against human CAKI-1 cells assessed as total growth inhibition incubated for 48 hrs by SRB assay; type: functional
# [8] = test system: HT-29; assay: Anticancer activity against human HT-29 cells assessed as total growth inhibition incubated for 48 hrs by SRB assay; type: functional
# [9] = test system: CCRF-CEM; assay: Anticancer activity against human CCRF-CEM cells assessed as growth inhibition incubated for 48 hrs by SRB assay; type: functional
# [10] = test system: KM12; assay: Anticancer activity against human KM12 cells assessed as growth inhibition incubated for 48 hrs by SRB assay; type: functional
# [11] = test system: HOP-92; assay: Anticancer activity against human HOP-92 cells assessed as lethality incubated for 48 hrs by SRB assay; type: functional; details: read-out: LC50 (the source's name)
# [12] = test system: NCI-H522; assay: Anticancer activity against human NCI-H522 cells assessed as total growth inhibition incubated for 48 hrs by SRB assay; type: functional
# [13] = Selectivity index, ratio of GI50 for human HaCaT cells to GI50 for human HCT-116 cells; type: toxicity; details: HaCaT cells versus HCT-116 cells, read-out: RatioGI50
# [14] = test system: HL-60; assay: Anticancer activity against human HL-60 cells assessed as total growth inhibition incubated for 48 hrs by SRB assay; type: functional
# [15] = test system: SN12C; assay: Anticancer activity against human SN12C cells assessed as growth inhibition incubated for 48 hrs by SRB assay; type: functional
# [16] = test system: SNB-19; assay: Anticancer activity against human SNB-19 cells assessed as total growth inhibition incubated for 48 hrs by SRB assay; type: functional
# [17] = test system: HCT-116; assay: Anticancer activity against human HCT-116 cells assessed as growth inhibition incubated for 48 hrs by SRB assay; type: functional
# [18] = Selectivity index, ratio of GI50 for human HaCaT cells to GI50 for human U-251 cells; type: toxicity; details: HaCaT cells versus U-251 cells, read-out: RatioGI50
# [19] = test system: PC-3; assay: Anticancer activity against human PC-3 cells assessed as total growth inhibition incubated for 48 hrs by SRB assay; type: functional
# [20] = test system: EKVX; assay: Anticancer activity against human EKVX cells assessed as lethality incubated for 48 hrs by SRB assay; type: functional; details: read-out: LC50 (the source's name)
# [21] = test system: Hs-578T; assay: Anticancer activity against human Hs-578T cells assessed as lethality incubated for 48 hrs by SRB assay; type: functional; details: read-out: LC50 (the source's name)
# [22] = test system: MOLT-4; assay: Anticancer activity against human MOLT-4 cells assessed as total growth inhibition incubated for 48 hrs by SRB assay; type: functional
# [23] = test system: Jurkat; assay: Induction of morphological changes in human Jurkat cells assessed as chromatin condensation incubated for 24 hrs by Hoechst 33258 and propidium iodide staining based fluorescence microscopy; type: functional, cell-based
# [24] = test system: DU-145; assay: Anticancer activity against human DU-145 cells assessed as growth inhibition incubated for 48 hrs by SRB assay; type: functional
# [25] = test system: NCI-H226; assay: Anticancer activity against human NCI-H226 cells assessed as growth inhibition incubated for 48 hrs by SRB assay; type: functional
# [26] = test system: RPMI-8226; assay: Anticancer activity against human RPMI-8226 cells assessed as growth inhibition incubated for 48 hrs by SRB assay; type: functional
# [27] = test system: RPMI-8226; assay: Anticancer activity against human RPMI-8226 cells assessed as total growth inhibition incubated for 48 hrs by SRB assay; type: functional
# [28] = test system: SF-268; assay: Anticancer activity against human SF-268 cells assessed as growth inhibition incubated for 48 hrs by SRB assay; type: functional
# [29] = test system: CAKI-1; assay: Anticancer activity against human CAKI-1 cells assessed as growth inhibition incubated for 48 hrs by SRB assay; type: functional
# [30] = Cytotoxicity against mitogen activated human peripheral blood lymphocytes assessed as cell growth inhibition incubated for 24 hrs by MTT assay; type: toxicity, cell-based, Lymphocyte
# [31] = test system: SK-OV-3; assay: Anticancer activity against human SK-OV-3 cells assessed as cell growth inhibition incubated for 72 hrs by MTT assay; type: functional
# [32] = test system: U-251; assay: Anticancer activity against human U-251 cells assessed as growth inhibition incubated for 48 hrs by SRB assay; type: functional
# [33] = test system: SF-295; assay: Anticancer activity against human SF-295 cells assessed as growth inhibition incubated for 48 hrs by SRB assay; type: functional
# [34] = test system: RPMI-8226; assay: Anticancer activity against human RPMI-8226 cells assessed as lethality incubated for 48 hrs by SRB assay; type: functional; details: read-out: LC50 (the source's name)
# [35] = test system: SN12C; assay: Anticancer activity against human SN12C cells assessed as total growth inhibition incubated for 48 hrs by SRB assay; type: functional
# [36] = test system: OVCAR-3; assay: Anticancer activity against human OVCAR-3 cells assessed as total growth inhibition incubated for 48 hrs by SRB assay; type: functional
# [37] = test system: HCC 2998; assay: Anticancer activity against human HCC 2998 cells assessed as lethality incubated for 48 hrs by SRB assay; type: functional; details: read-out: LC50 (the source's name)
# [38] = test system: HCT-116; assay: Anticancer activity against human HCT-116 cells assessed as total growth inhibition incubated for 48 hrs by SRB assay; type: functional
# [39] = test system: MDA-MB-435; assay: Anticancer activity against human MDA-MB-435 cells assessed as total growth inhibition incubated for 48 hrs by SRB assay; type: functional
# [40] = test system: IGROV-1; assay: Anticancer activity against human IGROV-1 cells assessed as lethality incubated for 48 hrs by SRB assay; type: functional; details: read-out: LC50 (the source's name)
# [41] = test system: NCI-H322M; assay: Anticancer activity against human NCI-H322M cells assessed as lethality incubated for 48 hrs by SRB assay; type: functional; details: read-out: LC50 (the source's name)
# [42] = Anticancer activity against human HCT116-p53-null cells assessed as cell growth inhibition incubated for 72 hrs by MTT assay; type: functional
# [43] = test system: Jurkat; assay: Anticancer activity against human Jurkat cells assessed as cell growth inhibition incubated for 72 hrs by MTT assay; type: functional
# [44] = test system: TK-10; assay: Anticancer activity against human TK-10 cells assessed as total growth inhibition incubated for 48 hrs by SRB assay; type: functional
# [45] = test system: MDA-MB-468; assay: Anticancer activity against human MDA-MB-468 cells assessed as total growth inhibition incubated for 48 hrs by SRB assay; type: functional
# [46] = test system: NCI-H23; assay: Anticancer activity against human NCI-H23 cells assessed as total growth inhibition incubated for 48 hrs by SRB assay; type: functional
# [47] = test system: Lymphocyte; assay: Induction of morphological changes in mitogen activated human peripheral blood lymphocytes assessed as increase in necrotic cells incubated for 24 hrs by Hoechst 33258 and propidium iodide staining based fluorescence microscopy; type: toxicity, cell-based
# [48] = test system: COLO 205; assay: Anticancer activity against human COLO 205 cells assessed as growth inhibition incubated for 48 hrs by SRB assay; type: functional
# [49] = test system: K562; assay: Anticancer activity against human K562 cells assessed as growth inhibition incubated for 48 hrs by SRB assay; type: functional
smiles,measurement,setting,value
O=C1CC(N2C(=O)/C(=C/C(Cl)=C/c3ccc([N+](=O)[O-])cc3)SC2=S)C(=O)N1c1ccc(O)cc1 (stereo not drawn),GI50,[1],1.35 µM
same,GI50,[2],2.34 µM
same,TGI,[3],2.76 µM
same,CC50,[4],9.05 µM
same,CC50,[5],7.94 µM
same,TGI,[6],6.82 µM
same,TGI,[7],2.42 µM
same,TGI,[8],8.78 µM
same,GI50,[9],0.385 µM
same,GI50,[10],1.83 µM
same,CC50,[11],8.54 µM
same,TGI,[12],4.23 µM
same,selectivity ratio,[13],16.3
same,TGI,[14],9.57 µM
same,GI50,[15],1.6 µM
same,TGI,[16],3.47 µM
same,GI50,[17],0.751 µM
same,selectivity ratio,[18],66.9
same,TGI,[19],2.87 µM
same,CC50,[20],35.3 µM
same,CC50,[21],> 100 µM
same,TGI,[22],15.3 µM
same,Activity,[23],Active
same,GI50,[24],1.72 µM
same,GI50,[25],2.41 µM
same,GI50,[26],0.295 µM
same,TGI,[27],4.36 µM
same,GI50,[28],2.43 µM
same,GI50,[29],1.15 µM
same,GI50 at 24 h,[30],67.1 µM
same,GI50,[31],> 100 µM
same,GI50,[32],0.597 µM
same,GI50,[33],1.31 µM
same,CC50,[34],> 100 µM
same,TGI,[35],5.88 µM
same,TGI,[36],1.96 µM
same,CC50,[37],5.76 µM
same,TGI,[38],2.14 µM
same,TGI,[39],4.34 µM
same,CC50,[40],5.98 µM
same,CC50,[41],24.3 µM
same,GI50,[42],5.65 µM
same,GI50,[43],1.3 µM
same,TGI,[44],3.79 µM
same,TGI,[45],5.7 µM
same,TGI,[46],3.52 µM
same,Activity,[47],Toxic
same,GI50,[48],1.83 µM
same,GI50,[49],0.603 µM
O=C1CC(N2C(=O)/C(=C/C(Cl)=C/c3ccc([N+](=O)[O-])cc3)SC2=S)C(=O)N1c1ccc(Cl)cc1 (stereo not drawn),GI50,[1],1.07 µM
same,GI50,[2],3 µM
same,TGI,[3],3.48 µM
same,CC50,[4],9.41 µM
same,CC50,[5],15 µM
same,TGI,[6],4.65 µM
same,TGI,[7],3.28 µM
same,TGI,[8],4.6 µM
same,GI50,[9],0.486 µM
same,GI50,[10],1.96 µM
same,CC50,[11],> 100 µM
same,TGI,[12],4.36 µM
same,selectivity ratio,[13],10.9
same,TGI,[14],8.86 µM
same,GI50,[15],1.69 µM
same,TGI,[16],2.97 µM
same,GI50,[17],1.35 µM
same,selectivity ratio,[18],11.2
same,TGI,[19],4.15 µM
same,CC50,[20],> 100 µM
same,CC50,[21],> 100 µM
same,TGI,[22],13.4 µM
same,Activity,[23],Active
same,GI50,[24],2.09 µM
same,GI50,[25],1.92 µM
same,GI50,[26],0.303 µM
same,TGI,[27],0.979 µM
same,GI50,[28],3.07 µM
same,GI50,[29],1.13 µM
same,GI50 at 24 h,[30],36.8 µM
same,GI50,[31],65.9 µM
same,GI50,[32],0.477 µM
same,GI50,[33],1.4 µM
same,CC50,[34],71 µM
same,TGI,[35],11.1 µM
same,TGI,[36],2.62 µM
same,CC50,[37],5.76 µM
same,TGI,[38],3.04 µM
same,TGI,[39],3.39 µM
same,CC50,[40],49.6 µM
same,CC50,[41],> 100 µM
same,GI50,[42],6 µM
same,GI50,[43],3.4 µM
same,TGI,[44],8.63 µM
same,TGI,[45],3.1 µM
same,TGI,[46],4.31 µM
same,Activity,[47],Toxic
same,GI50,[48],1.4 µM
same,GI50,[49],0.692 µM
